Experimental data from paper PMC4457802 (PLoS ONE, 2015).
Like-named read-outs stand apart in the source and are kept apart here.

Tests used:
Streptococcus pneumoniae = assay: Time killing assay; type: cell-based; details: 1×MIC; for time to totally eliminate resistant strain: failed up to 240 min of treatment; for time to eradicate susceptible pneumococcal isolate / time to completely kill 10^6 CFU/ml of S. pneumoniae: MHB, 37°C, triplicate; for time to completely kill 10^6 CFU/ml of S. pneumoniae: sampled every 30 min to 240 min
Protocol: The bactericidal activities of peptides were performed as described previously. […] 10μl of bacterial suspensions were removed at various time intervals (30, 60, 90, 120, 150, 180, 210, and 240 min), serially diluted in PBS and plated onto Columbia agar with 5% sheep blood for 20-24hr at 37°C in the presence of 5% CO2 to obtain viable colonies. Erythromycin and ceftriaxone were used as positive control and the assay was performed in triplicate.

S. aureus ATCC 25923 = type: cell-based, Staphylococcus aureus; details: for MIC S. aureus ATCC 25923, in parentheses: numbers in parentheses are micromolar concentrations
From the text: (§1) Thirty (30) Pneumococcal clinical isolates were obtained from University of Malaya Medical Centre (UMMC). For broad-spectrum activity of AMPs, E. coli ATCC 25922, Staphylococcus aureus ATCC 25923, P. aeruginosa ATCC 15442, Acinetobacter baumanii ATCC 15308, and one clinical isolate of each methicillin resistant S. aureus (MRSA), […], citrobacter spp., and K. pneumoniae were used in this study.
(§2) The minimum inhibitory concentration (MIC) of the peptides against 30 pneumococcal isolates was determined by broth microdilution protocol as indicated by the CLSI guidelines (Clinical and Laboratory Standards Institute). Briefly, bacterial strains were grown for 18–24 hr at 37°C under 5% CO2. Direct suspension of the colonies were made in cationically-adjusted Müeller-Hinton broth (CAMHB) and adjusted to OD 625 0.08–0.1 which corresponds to 1 ~ 2 x10^8 CFU/ml followed by serial ten-fold dilutions to give 1x10^6 CFU/ml. 50μl of bacterial suspension were added to 96-well round bottom microtiter plates containing equal volume of peptides at different concentrations (1.95, 3.90, 7.81, 15.62, 31.25, 62.5, 125, 250μg/ml) and the 96-well plates were incubated for 20-24hr at 37°C in the presence of 5% CO2.

P. aeruginosa ATCC 15442 = type: cell-based; details: numbers in parentheses are micromolar concentrations
From the text: as §1, §2

citrobacter spp = type: cell-based; details: numbers in parentheses are micromolar concentrations
From the text: as §1, §2

E. coli ATCC 25922 = type: cell-based; details: numbers in parentheses are micromolar concentrations
From the text: as §1, §2

[1] = test system: Methicillin resistant S. aureus (MRSA); type: cell-based; details: numbers in parentheses are micromolar concentrations
From the text: as §1, §2

K. pneumoniae = type: cell-based; details: numbers in parentheses are micromolar concentrations
From the text: as §1, §2

Enterococcus cloacae = type: cell-based; details: numbers in parentheses are micromolar concentrations
From the text: as §1, §2

[2] = test system: Acinetobacter baumanii ATCC 15308; type: cell-based; details: numbers in parentheses are micromolar concentrations
From the text: as §1, §2

[3] = test system: S. pneumoniae (30 clinical isolates); type: cell-based, Streptococcus pneumoniae; details: for MIC S. pneumoniae (30 clinical isolates), in parentheses: numbers in parentheses are micromolar concentrations; for MIC S. pneumoniae (30 clinical isolates): broth microdilution, CAMHB, 20-24hr, 37°C, 5% CO2, lowest concentration that completely inhibits growth
From the text: as §1, §2

[4] = test system: WRL-68 normal liver cell line; type: cell-based, human
Protocol: (§3) CellTiter 96 AQueous Non-Radioactive Cell Proliferation assay (Promega, USA) was used to evaluate the cytotoxic effects of peptides. WRL-68 (ATCC CL-48) and NL-20 (ATCC CRL2503) cell lines were purchased from American Type Culture Collection (ATCC, USA). The cell lines were grown in Dulbecco's modified Eagle's medium (DMEM) and Ham’s F-12 medium, respectively. Cells were supplemented with 10% (v/v) fetal bovine serum (FBS) in T75 flasks and incubated at 37°C in the presence of 5% CO2. Cells were seeded into 96-well plates at a density of 1×10^4 and 3×10^4 cells per well, respectively. Peptides were added to the wells at different concentrations (1.95, 3.90, 7.81, 15.62, 31.25, 62.5, 125, and 250μg) and plates were incubated at 37°C under 5% CO2 for 24, 48, and 72 hrs. Medium with and without cells was used as positive and negative controls, respectively. After incubation, 20μl of the reagent were added to each well and incubated for 1 hr at 37°C under 5% CO2. Metabolically active cells convert the yellow MTS to purple formazan, allowing for monitoring of the reaction. The absorbance was monitored at 490 nm using GloMax Multi Detection System (Promega, USA). The percentage of viable cells was calculated according to the following formula: 100 (AT-AB/AC-AB), where AT and AC are the absorbance of treated and control cells (100% survival). AB is the absorbance of medium alone. The assay was done in triplicate.

[5] = test system: NL-20 normal lung cell line; type: cell-based, human
Protocol: as §3

Row | Compound | MIC S. aureus ATCC 25923, in parentheses (S. aureus ATCC 25923; unit of the source corrected) | MIC P. aeruginosa ATCC 15442, in parentheses (P. aeruginosa ATCC 15442) | MIC citrobacter spp, in parentheses (citrobacter spp) | MIC E. coli ATCC 25922, in parentheses (E. coli ATCC 25922; unit of the source corrected) | MIC MRSA, in parentheses ([1]; unit of the source corrected) | MIC K. pneumoniae, in parentheses (K. pneumoniae) | MIC Enterococcus cloacae, in parentheses (Enterococcus cloacae) | MIC Acinetobacter baumanii ATCC 15308, in parentheses [2] | MIC S. pneumoniae (30 clinical isolates), in parentheses ([3]; unit of the source corrected) | time to completely kill 10^6 CFU/ml of S. pneumoniae (Streptococcus pneumoniae) | MIC P. aeruginosa ATCC 15442, in parentheses (P. aeruginosa ATCC 15442; unit of the source corrected) | MIC S. pneumoniae (30 clinical isolates) [3] | further results
1 | CO/N=C(\C(=O)N[C@@H]1C(=O)N2C(C(=O)O)=C(CSc3nc(=O)c(=O)[nH]n3C)CS[C@H]12)c1csc(N)n1 [ceftriaxone, reference compound] |  |  |  |  |  |  |  |  |  |  |  |  | time to totally eliminate resistant strain (Streptococcus pneumoniae): > 240 min; time to eradicate susceptible pneumococcal isolate (Streptococcus pneumoniae): 150 min
2 | CC[C@H]1OC(=O)[C@H](C)[C@@H](O[C@H]2C[C@@](C)(OC)[C@@H](O)[C@H](C)O2)[C@H](C)[C@@H](O[C@@H]2O[C@H](C)C[C@H](N(C)C)[C@H]2O)[C@](C)(O)C[C@@H](C)C(=O)[C@H](C)[C@@H](O)[C@]1(C)O [erythromycin, reference compound] |  |  |  |  |  |  |  |  |  |  |  |  | time to totally eliminate resistant strain (Streptococcus pneumoniae): > 240 min; time to eradicate susceptible pneumococcal isolate (Streptococcus pneumoniae): 120 min
3 | FLGGLIKIVPAMICAVRKKC-OH [RN1, ranalexin analog] | 125 µg/mL | >250 (>115.7) micromolar | >250 (>115.7) micromolar | 250 µg/mL | 250 µg/mL | >250 (>115.7) micromolar | >250 (>115.7) micromolar | >250 (>115.7) micromolar | 250 µg/mL |  |  |  | 
4 | FLGGLIKKWPWWPWRR-NH2 [RN7-IN9, hybrid peptide of ranalexin and indolicidin] | 7.81 µg/mL |  | >250 (>117) micromolar | 7.81 µg/mL | 7.81 µg/mL | >250 (>117) micromolar | >250 (>117) micromolar | 31.25 (14.7) micromolar | 7.81 to 15.6 µg/mL | ≤ 150 min | 31.2 µg/mL | 7.81 to 15.62 µg/mL | concentration at which toxic, WRL-68 [4]: ≥ 62.5 µg/mL; concentration at which toxic, NL-20 [5]: ≥ 125 µg/mL
5 | FLGGLIKPVPAMICAVRKKC-OH [RN2, ranalexin analog] |  | >250 (>116) micromolar | >250 (>116) micromolar |  |  | >250 (>116) micromolar | >250 (>116) micromolar | >250 (>116) micromolar |  |  |  |  | MIC S. aureus ATCC 25923, in parentheses (S. aureus ATCC 25923): >250 (>116) micromolar; MIC E. coli ATCC 25922, in parentheses (E. coli ATCC 25922): >250 (>116) micromolar; MIC MRSA, in parentheses [1]: >250 (>116) micromolar; MIC S. pneumoniae (30 clinical isolates), in parentheses [3]: >250 (>116) micromolar
6 | FLGGLIKPWWPWRR-NH2 [RN7-IN7, hybrid peptide of ranalexin and indolicidin] | 31.2 µg/mL |  | >250 (>138) micromolar | 31.2 µg/mL | 31.2 µg/mL | >250 (>138) micromolar | >250 (>138) micromolar | 125 (69) micromolar | 31.2 to 62.5 µg/mL | 120 min | 62.5 µg/mL | 31.25 to 62.5 µg/mL | 
7 | FLGGLIKRPPAMICAVRKKC-OH [RN4, ranalexin analog] |  | >250 (>113) micromolar | >250 (>113) micromolar |  |  | >250 (>113) micromolar | >250 (>113) micromolar | >250 (>113) micromolar |  |  |  |  | MIC S. aureus ATCC 25923, in parentheses (S. aureus ATCC 25923): >250 (>113) micromolar; MIC E. coli ATCC 25922, in parentheses (E. coli ATCC 25922): >250 (>113) micromolar; MIC MRSA, in parentheses [1]: >250 (>113) micromolar; MIC S. pneumoniae (30 clinical isolates), in parentheses [3]: >250 (>113) micromolar
8 | FLGGLIKRVPAMICAVRKKC-OH [RN3, ranalexin analog] |  | >250 (>113) micromolar | >250 (>113) micromolar |  |  | >250 (>113) micromolar | >250 (>113) micromolar | >250 (>113) micromolar |  |  |  |  | MIC S. aureus ATCC 25923, in parentheses (S. aureus ATCC 25923): >250 (>113) micromolar; MIC E. coli ATCC 25922, in parentheses (E. coli ATCC 25922): >250 (>113) micromolar; MIC MRSA, in parentheses [1]: >250 (>113) micromolar; MIC S. pneumoniae (30 clinical isolates), in parentheses [3]: >250 (>113) micromolar
9 | LLPWKWPWWKWRR-NH2 [IN1, indolicidin analog] | 31.2 µg/mL |  | >250 (>129) micromolar | 31.2 µg/mL | 31.2 µg/mL | >250 (>129) micromolar | >250 (>129) micromolar | >250 (129) micromolar | 31.2 to 62.5 µg/mL | 210 min | 31.2 µg/mL | 31.25 to 62.5 µg/mL | 
10 | RLPWRWPRRPWRR-NH2 [IN4, indolicidin analog] |  |  | >250 (>130.4) micromolar | 250 µg/mL | 250 µg/mL | >250 (>130.4) micromolar | >250 (>130.4) micromolar | >250 (>130.4) micromolar | 250 µg/mL |  | 125 µg/mL | > 250 µg/mL | MIC S. aureus ATCC 25923 (S. aureus ATCC 25923; broth microdilution): 125 µg/mL
11 | RRPWRWPRWPWRR-NH2 [IN3, indolicidin analog] | 31.2 µg/mL |  | >250 (>125) micromolar | 31.2 µg/mL | 62.5 µg/mL | >250 (>125) micromolar | >250 (>125) micromolar | >250 (>125) micromolar | 62.5 µg/mL | 150 min | 31.2 µg/mL |  | 
12 | RRPWRWPWWPWRR-NH2 [IN2, indolicidin analog] | 31.2 µg/mL |  | >250 (>123) micromolar | 31.2 µg/mL | 31.2 µg/mL | >250 (>123) micromolar | >250 (>123) micromolar | >250 (>123) micromolar | 31.2 to 62.5 µg/mL | 210 min | 31.2 µg/mL | 31.25 to 62.5 µg/mL | 
